One test concerns LAMP-1 in 769-P cells. Briefly: LAMP-1 protein expression (western blot), 769-P. The class given is cell-based, human. The note with it: 20 μM, 24, 48, 72 h. The protocol:
Figure 7 Effect of the peptides on LAMP-1 protein expression: (a) Western blotting analysis of LAMP-1 after treatment with PLVE and VLPE (20 μM) for 24, 48, and 72 h in 769-P cells. (b) Confocal microscopy evaluation of LAMP-1 expression after 48 and 72 h of treatment with PLVE and VLPE (20 μM) in 769-P cells. (c) Western blotting analysis of LAMP-1 after treatment with PLVE and VLPE (20 μM) for 24, 48, and 72 h in A498 cells. (d) Confocal microscopy evaluation of LAMP-1 expression after 48 and 72 h of treatment with PLVE and VLPE (20 μM) in A498 cells. Data are represented as mean ± SD of at least three replicates. Significance was calculated through one-way ANOVA followed by Dunnet’s test. * = p < 0.05, ** = p < 0.01, *** = p < 0.001. Cells were seeded in RPMI containing 10% FBS and cultured for 24 h. Next, 30 µM of inhibitors were added to the culture medium and incubated for 24, 48, and 72 h. Control cells were treated with 0.01% DMSO. At all time points the samples were lysed in 50 mM Tri-HCl (pH 8.0), 100 mM NaCl, 0.5% NP-40, 1% Triton X-100, 1× protease inhibitor cocktail (ThermoFisher, Waltham, MA, USA). The 50 µg of protein lysates were separated by electrophoresis on a 12% SDS-PAGE gel and transferred to the PFDF membranes. […] After an additional wash (three times with PBS), reactive bands were detected by chemiluminescence (Bio-Rad, Irvine, CA, USA). […]
Background: In western blotting, separated proteins are transferred to a membrane and probed.

A further test has as its system LAMP-1 in A498 cells. Briefly: LAMP-1 protein expression (western blot, confocal microscopy), A498. The class given is cell-based, human. Conditions: 20 μM. The procedure:
Figure 7 Effect of the peptides on LAMP-1 protein expression: (a) Western blotting analysis of LAMP-1 after treatment with PLVE and VLPE (20 μM) for 24, 48, and 72 h in 769-P cells. (b) Confocal microscopy evaluation of LAMP-1 expression after 48 and 72 h of treatment with PLVE and VLPE (20 μM) in 769-P cells. (c) Western blotting analysis of LAMP-1 after treatment with PLVE and VLPE (20 μM) for 24, 48, and 72 h in A498 cells. (d) Confocal microscopy evaluation of LAMP-1 expression after 48 and 72 h of treatment with PLVE and VLPE (20 μM) in A498 cells. Data are represented as mean ± SD of at least three replicates. Significance was calculated through one-way ANOVA followed by Dunnet’s test. * = p < 0.05, ** = p < 0.01, *** = p < 0.001. Cells were seeded in RPMI containing 10% FBS and cultured for 24 h. Next, 30 µM of inhibitors were added to the culture medium and incubated for 24, 48, and 72 h. Control cells were treated with 0.01% DMSO. At all time points the samples were lysed in 50 mM Tri-HCl (pH 8.0), 100 mM NaCl, 0.5% NP-40, 1% Triton X-100, 1× protease inhibitor cocktail (ThermoFisher, Waltham, MA, USA). The 50 µg of protein lysates were separated by electrophoresis on a 12% SDS-PAGE gel and transferred to the PFDF membranes. The expression of cysteine Cts, LAMP-1, E-cadherin, and SNAIL1 were identified by a reaction with specific primary antibodies (CtsB-Ab190077, Abcam, UK; CtsL-Ab95154, Abcam, UK; CtsW Ab191083; LAMP-1- Ab24170, Abcam, UK; SNAIL1 Ab216347, Abcam, UK and e-cadherin-612131, BD Sciences Franklin Lakes, NJ, USA) which were resuspended in 5% non-fat milk in PBST (all Cts 1:3000, LAMP-1, SNAIL1 and E-cadherin 1:1000) and incubated O/N. The next day, the membranes were washed three times with PBST and incubated for 1 h with secondary antibodies (P-GAR Iss (Goat pAb to rabbit IgG (HRP), Abcam, UK or Rabbit Ab to mouse, Abcam, UK; both 1:5000) in 5% non-fat milk in PBST. After an additional wash (three times with PBS), reactive bands were detected by chemiluminescence (Bio-Rad, Irvine, CA, USA). As a loading control, the membranes were incubated with a polyclonal anti-tubulin antibody (1:5000; Ab52866, Abcam, UK) identically. The cells were treated for 48 and 72 h, then were fixed in 4% PFA/PBS for 15 min and permeabilized in 0.25% Triton®X-100 for 10 min. After blocking the non-specific sites in 2% BSA/PBS-T, the immunofluorescence was performed overnight with primary antibody anti-LAMP-1 (1:100, Abcam, Eugene, OR, USA) incubation, followed by incubation with the appropriate fluorophore-labeled secondary antibody Donkey anti-Rabbit IgG (H+L) ReadyProbes™, Alexa Fluor 488 (1:500; ThermoFisher, USA). […]

Our source for the LAMP-1 protein expression values is paper PMC7281206, “Cysteine Cathepsins Inhibition Affects Their Expression and Human Renal Cancer Cell Phenotype” (Cancers, 2020).

“Also recorded” adds a separate entry of the source. *: point of attachment. CH2F = FC*

Regarding Ac-PLVE-CH2F [Ac-PLVE-FMK], the LAMP-1 protein expression result in the test with LAMP-1 in 769-P cells is on record as “significantly increased the expression of this lysosomal biomarker at all the considered time points, reaching significant peaks at 48 h of treatment”; in the test on LAMP-1 in A498 cells (72 h), “substantial recovery at 72 h, reaching values slightly higher than CTRL levels”; in the test with LAMP-1 in A498 cells (first 48 h) it was “significantly affected during the first 48 h”.
With Ac-VLPE-CH2F [Ac-VLPE-FMK], the LAMP-1 protein expression result with LAMP-1 in 769-P cells was “significantly increased the expression of this lysosomal biomarker at all the considered time points, reaching significant peaks at 48 h of treatment; also recorded: more efficient than Ac-PLVE-FMK in increasing the expression of LAMP-1”; in the test on LAMP-1 in A498 cells (72 h) it was “substantial recovery at 72 h, reaching values slightly higher than CTRL levels”; in the test on LAMP-1 in A498 cells (first 48 h) it was “significantly affected during the first 48 h”.
